{"source": "patent US9139596B2", "about": "“Cyclic prodrugs of duocarmycin analogs” (The Scripps Research Institute, priority 2012, dated 2015)", "key": {"[1]": {"test_system": "L1210 murine leukemia cell line", "assay": "In vitro cytotoxic activity (cell growth inhibition), L1210", "type": "cell-based", "conditions": "for IC50: Mus musculus", "protocol": "In Vitro Cytotoxic Activity. Both (+)- and ent-(−)-6 and their N-Boc precursors 16 were tested for cell growth inhibition in a cytotoxic assay with the L1210 murine leukemia cell line."}, "[2]": {"test_system": "L1210 murine leukemia cells implanted ip", "assay": "In vivo antitumor activity (L1210, ip)", "conditions": "for Surviving Mice: live animals after 250 days", "protocol": "Therefore, the in vivo antitumor activity of (+)-6 was assessed alongside seco-CBI-indole2 (4) in an antitumor model consisting of L1210 murine leukemia cells implanted ip into […] which has been used historically as an initial antitumor model for comparisons in this class.^11,12,14,15 A dose range of 300 to 9000 μg/kg for prodrug (+)-6 (scaled to its in vitro cytotoxic activity IC50) and 60 to 500 μg/kg for seco-CBI-indole2 (4) and a dosing schedule (administered three times ip on days 1, 5, and 9) for both compounds was employed.\nB6D2F1 mice were injected intraperitoneal (i.p.) with syngeneic L1210 cells (1×10^6) on day 0. Ten mice were randomly assigned to control vehicle or treatment groups for compounds (+)-4 and (+)-6 at doses of 60, 100, 250, and 500 μg/kg/inj for (+)-4 or 300, 1000, 3000, and 9000 μg/kg/inj for (+)-6. Compounds (+)-4 and (+)-6 were formulated in 100% DMSO, and injected i.p. on study days 1, 5, and 9. Following injection of tumor cells, animals were monitored daily and weighed two times per week. Percent survival (T/C) for treated and control groups were determined by dividing the total survival days for each treatment group by the total survival days for the control group and multiplying ×100. All animal studies were carried out in the animal facilities of The University of Kansas Medical Center with strict adherence to the guidelines of the IACUC Animal Welfare Committee of KUMC (IACUC approval #2009-1837)."}, "[3]": {"assay": "Stability in human plasma", "protocol": "Reagents and solvents were purchased reagent-grade and used without further purification. Pooled human plasma, with sodium citrate as an anticoagulant, was purchased from Innovative Research and stored at −20° C. […] All reactions were performed in oven-dried glassware under an Ar atmosphere. Evaporation and concentration in vacuo was performed at 20° C. […] Chiral phase HPLC was performed using a Shimadzu HPLC on a semi-preparative Diacel ChiralCel OD column (0.46 cm×25 cm) with a flow rate of 7 mL/min and with UV detection at λ=254 nm. Optical rotations were determined on a Rudolf Research Analytical Autopol III Automatic Polarimeter (λ=589 nm, 25° C.)."}, "w794 DNA": {"test_system": "w794 DNA", "assay": "DNA alkylation in cell-free systems", "type": "biochemical", "source_text": "Lane 1, control DNA; lanes 2-5, Sanger G, C, A, and T sequencing reactions; lanes 6-8, (+)-1 (1×10^−4 to 1×10^−6); lanes 9-10, (−)−1 (1×10^−3 to 1×10^−4); lanes 11-12, (+)-6 (1×10^−1 to 1×10^−2)."}, "[4]": {"assay": "Stability in mouse plasma (Table 4)"}, "[5]": {"assay": "Stability in pH 7.0 phosphate buffer", "conditions": "for half-life: buffer"}, "[6]": {"conditions": "300 μg/kg i.p. on days 1, 5, and 9"}, "[7]": {"conditions": "1000 μg/kg i.p. on days 1, 5, and 9"}, "[8]": {"conditions": "3000 μg/kg i.p. on days 1, 5, and 9"}, "[9]": {"conditions": "9000 μg/kg i.p. on days 1, 5, and 9"}}, "note": "Read-outs that look alike come from different tables or passages of the source.", "data": [{"smiles": "O=C1Nc2cccc3c4c(cc(c23)O1)N(C(=O)c1cc2cc(NC(=O)c3cc5ccccc5[nH]3)ccc2[nH]1)C[C@H]4CCl", "note": "[Compound 6, N-(2-(10-(Chloromethyl)-5-oxo-5,8,9,10-tetrahydro-4H-pyrrolo[3′,2′:5,6]naphtho[1,8-de][1,3]oxazine-8-carbonyl)-1H-indol-5-yl)-1H-indole-2-carboxamide]", "values": [{"measurement": "fold less potent than the parent drug 20", "setting": "[1]; L1210", "result": "30-70 fold"}, {"measurement": "fold more potent than its unnatural enantiomer", "setting": "[1]; L1210", "result": 6, "unit": "fold"}, {"measurement": "potency of natural (S)- versus unnatural (R)-enantiomer", "setting": "[1]; L1210", "result": "about one order of magnitude more potent"}, {"measurement": "times more potent than its N-Boc precursor 16", "setting": "[1]; L1210", "result": "100 to 1000", "unit": "times"}, {"measurement": "fold less potent than the free drug seco-CBI-indole2 4", "setting": "[1]; L1210, natural enantiomer", "result": "approximately 200 fold"}, {"measurement": "IC50", "setting": "[1]; L1210, natural (S)-enantiomer, Table 4, read-out: In vitro IC50 L1210 natural", "result": 6.6, "unit": "nM"}, {"measurement": "IC50", "setting": "[1]; L1210, natural enantiomer, Table 2, read-out: IC50 L1210 natural", "result": 6.6, "unit": "nM"}, {"measurement": "IC50", "setting": "[1]; L1210, unnatural (R)-enantiomer, Table 4, read-out: In vitro IC50 L1210 unnatural", "result": 40, "unit": "nM"}, {"measurement": "IC50", "setting": "[1]; L1210, unnatural enantiomer, Table 2, read-out: IC50 L1210 unnatural", "result": 40, "unit": "nM"}, {"measurement": "IC50", "setting": "[1]; L1210, stated range, read-out: in vitro cellular potency (IC50)", "result": "1 to 10", "unit": "nM"}, {"measurement": "MSP (Mean Survival Period)", "setting": "[2]; [6]", "result": 24.7, "unit": "days"}, {"measurement": "T/C (Treated/Control MSP x 100)", "setting": "[2]; [6]", "result": 140}, {"measurement": "Surviving Mice", "setting": "[2]; [6]", "result": "0/10"}, {"measurement": "MSP (Mean Survival Period)", "setting": "[2]; [7]", "result": ">48.5", "unit": "days"}, {"measurement": "T/C (Treated/Control MSP x 100)", "setting": "[2]; [7]", "result": ">275"}, {"measurement": "Surviving Mice", "setting": "[2]; [7]", "result": "1/10"}, {"measurement": "MSP (Mean Survival Period)", "setting": "[2]; [8]", "result": ">55.3", "unit": "days"}, {"measurement": "T/C (Treated/Control MSP x 100)", "setting": "[2]; [8]", "result": ">310"}, {"measurement": "Surviving Mice", "setting": "[2]; [8]", "result": "1/10"}, {"measurement": "MSP (Mean Survival Period)", "setting": "[2]; [9]", "result": ">172.6", "unit": "days"}, {"measurement": "T/C (Treated/Control MSP x 100)", "setting": "[2]; [9]", "result": ">980"}, {"measurement": "T/C (Treated/Control MSP x 100)", "setting": "[2]; 9000 μg/kg i.p. on days 1, 5, and 9, listed as (+)-6", "result": "> 980"}, {"measurement": "Surviving Mice", "setting": "[2]; [9]", "result": "5/10"}, {"measurement": "antitumor activity over the dose range examined", "setting": "[2]; 300 to 9000 μg/kg (30-fold range) i.p. on days 1, 5, and 9", "result": "productive antitumor activity over the entire and much larger dose range examined"}, {"measurement": "tolerance at the injection sites", "setting": "[2]; ip administration, compared with the free drug", "result": "tolerated at the injection sites of the animals much better than the free drug"}, {"measurement": "free drug release", "setting": "[3]; human plasma, 48 h", "result": 5, "unit": "%"}, {"measurement": "half-life", "setting": "[3]; human, plasma", "result": "> 48", "unit": "h"}, {"measurement": "DNA alkylation", "setting": "w794 DNA", "result": "incapable of alkylating DNA"}, {"measurement": "half-life", "setting": "[4]", "result": 12, "unit": "h"}, {"measurement": "half-life", "setting": "[5]; pH 7, Stability t1/2, pH 7.0 phosphate buffer, Table 4", "result": "> 168", "unit": "h"}, {"measurement": "half-life", "setting": "[5]; pH 7, t1/2, pH 7.0 phosphate buffer", "result": "> 672", "unit": "h"}, {"measurement": "cleavage of the prodrug", "setting": "[5]; pH 7.0 phosphate buffer", "result": "no cleavage observed"}]}]}
